Results: ChEMBL document CHEMBL5241134, “Discovery of orally bioavailable inhibitors of MALT1 with in vivo activity for psoriasis” (Bioorg Med Chem Lett, 2023)

What was measured:
[1] = target: T1, Mucosa-associated lymphoid tissue lymphoma translocation protein 1 (Homo sapiens, UniProt Q9UDY8); assay: Inhibition of MALT1 (unknown origin)
T1 sequence (Q9UDY8 whole entry): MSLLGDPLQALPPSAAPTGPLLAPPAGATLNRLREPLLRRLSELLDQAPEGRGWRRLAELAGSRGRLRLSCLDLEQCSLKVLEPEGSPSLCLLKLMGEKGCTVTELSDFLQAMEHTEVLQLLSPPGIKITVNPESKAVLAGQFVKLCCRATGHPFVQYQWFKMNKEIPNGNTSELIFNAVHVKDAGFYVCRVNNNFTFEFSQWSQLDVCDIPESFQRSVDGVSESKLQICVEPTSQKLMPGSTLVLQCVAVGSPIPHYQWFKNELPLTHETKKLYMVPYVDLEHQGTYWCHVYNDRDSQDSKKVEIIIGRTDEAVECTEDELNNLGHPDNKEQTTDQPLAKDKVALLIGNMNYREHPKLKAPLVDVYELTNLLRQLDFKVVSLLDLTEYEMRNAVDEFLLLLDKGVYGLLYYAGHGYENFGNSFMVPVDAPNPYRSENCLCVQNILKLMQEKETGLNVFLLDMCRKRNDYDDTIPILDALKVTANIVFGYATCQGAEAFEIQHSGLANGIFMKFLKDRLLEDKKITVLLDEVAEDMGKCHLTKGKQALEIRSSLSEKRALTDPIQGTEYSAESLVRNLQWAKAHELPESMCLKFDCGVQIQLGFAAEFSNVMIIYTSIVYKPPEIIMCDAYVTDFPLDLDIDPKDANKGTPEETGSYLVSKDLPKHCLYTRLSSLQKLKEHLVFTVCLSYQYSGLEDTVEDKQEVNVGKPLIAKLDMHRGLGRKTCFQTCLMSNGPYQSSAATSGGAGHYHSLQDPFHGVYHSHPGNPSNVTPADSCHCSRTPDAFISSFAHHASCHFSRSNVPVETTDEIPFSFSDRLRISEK

[2] = Apparent permeability of the compound in human Caco-2 cells; format: ADME, cell-based
[3] = AUC (0 to infinity) in BALB/cAnNCrlCr mouse at 2 mg/kg, po administered as single dose; format: ADME, organism-based; set-up: dose 2 mg/kg, route po; details: in vivo
[4] = Oral bioavailability in BALB/cAnNCrlCr mouse at 2 mg/kg administered as single dose; format: ADME, organism-based; details: in vivo
[5] = AUC (0 to infinity) in BALB/cAnNCrlCr mouse at 1 mg/kg, iv administered as single dose; format: ADME, organism-based; set-up: dose 1 mg/kg, route iv; details: in vivo
[6] = Tmax in BALB/cAnNCrlCr mouse at 2 mg/kg, po administered as single dose; format: ADME, organism-based; details: in vivo
[7] = Half-life in BALB/cAnNCrlCr mouse at 1 mg/kg, iv administered as single dose; format: ADME, organism-based; details: in vivo
[8] = Drug concentration in BALB/cAnNCrlCr mouse at 1 mg/kg, iv administered as single dose; format: ADME, organism-based; details: in vivo
[9] = Cmax in BALB/cAnNCrlCr mouse at 2 mg/kg, po administered as single dose; format: ADME, organism-based; set-up: dose 2 mg/kg, route po; details: in vivo
[10] = Total clearance in BALB/cAnNCrlCr mouse at 1 mg/kg, iv administered as single dose; format: ADME, organism-based; details: in vivo
[11] = Half-life in BALB/cAnNCrlCr mouse at 2 mg/kg, po administered as single dose; format: ADME, organism-based; details: in vivo
[12] = Inhibition of IL-2 production in PMA/ionomycin stimulated human Jurkat T cells; format: functional, cell-based

Structure (SMILES) | IC50 [1] [nM] | also measured
CN(C)[C@@H](CO)CNC(=O)c1cc(-c2ccc(Cl)cc2)n(-c2ccc(Cl)cc2)n1 | 690 | 
CC(=O)N[C@H](C(=O)NCc1cc(-c2ccc(Cl)cc2)n(-c2ccc(Cl)cc2)n1)C(C)C | 2060 | 
NC(C(=O)NCc1cc(-c2ccc(Cl)cc2)n(-c2ccc(Cl)cc2)n1)c1ccccn1 (configuration not stated) | 227 | 
CC(=O)/N=C(\N)NCc1cc(-c2ccc(Cl)cc2)n(-c2ccc(Cl)cc2)n1 | 1540 | 
CS(=O)(=O)/N=C(\NCc1cccc(Cl)c1)NCc1cc(-c2ccc(Cl)cc2)n(-c2ccc(Cl)cc2)n1 | 20 | 
N#C/N=C(\N)NCc1cc(-c2ccc(Cl)cc2)n(-c2ccc(Cl)cc2)n1 | 1590 | 
N/C(=N\S(=O)(=O)c1ccccc1)NCc1cc(-c2ccc(Cl)cc2)n(-c2ccc(Cl)cc2)n1 | 93 | Papp [2]: 3 ×10⁻⁶ cm/s; AUC(0-inf) [3]: 4450 ng·h/mL; bioavailability [4]: 39.9%; AUC(0-inf) [5]: 5570 ng·h/mL; Tmax [6]: 2 h; half-life [7]: 3.37 h; Drug uptake [8]: 1920 ng/mL; Cmax [9]: 560 ng/mL; clearance [10]: 3 mL/min/kg; half-life [11]: 4.82 h; IC50 [12]: 1400 nM
CC(=O)NCc1cc(-c2ccc(Cl)cc2)n(-c2ccc(Cl)cc2)n1 | 1770 | 
O=C(Cc1ccccc1)NCc1cc(-c2ccc(Cl)cc2)n(-c2ccc(Cl)cc2)n1 | 188 | 
CC(C)[C@H](N)C(=O)NCc1cc(-c2ccc(Cl)cc2)n(-c2ccc(Cl)cc2)n1 | 1850 | 
O=C(NCCc1ccccc1)c1cc(-c2ccc(Cl)cc2)n(-c2ccc(Cl)cc2)n1 | > 25000 | 
CS(=O)(=O)N[C@H](C(=O)NCc1cc(-c2ccc(Cl)cc2)n(-c2ccc(Cl)cc2)n1)c1ccccc1 | 60 | IC50 [12]: > 10000 nM
CS(=O)(=O)/N=C(\NCc1ccccc1)NCc1cc(-c2ccc(Cl)cc2)n(-c2ccc(Cl)cc2)n1 | 31 | IC50 [12]: 1100 nM
N[C@@H](C(=O)NCc1cc(-c2ccc(Cl)cc2)n(-c2ccc(Cl)cc2)n1)c1ccccc1 | 368 | 
CS(=O)(=O)/N=C(\NCc1ccccn1)NCc1cc(-c2ccc(Cl)cc2)n(-c2ccc(Cl)cc2)n1 | 34 | 
N/C(=N\S(=O)(=O)C1CC1)NCc1cc(-c2ccc(Cl)cc2)n(-c2ccc(Cl)cc2)n1 | 258 | 
CN(C)[C@@H](CO)C(=O)NCc1cc(-c2ccc(Cl)cc2)n(-c2ccc(Cl)cc2)n1 | 4020 | 
CN(C)[C@H](C(=O)NCc1cc(-c2ccc(Cl)cc2)n(-c2ccc(Cl)cc2)n1)c1ccccc1 | 53 | IC50 [12]: 1720 nM
Cn1ccc(S(=O)(=O)/N=C(\N)NCc2cc(-c3ccc(Cl)cc3)n(-c3ccc(Cl)cc3)n2)n1 | 510 | 
N/C(=N\S(=O)(=O)C1CCCCC1)NCc1cc(-c2ccc(Cl)cc2)n(-c2ccc(Cl)cc2)n1 | 762 | 
N[C@H](C(=O)NCc1cc(-c2ccc(Cl)cc2)n(-c2ccc(Cl)cc2)n1)c1ccccc1 | 53 | IC50 [12]: 2660 nM

Structure (SMILES) | IC50 [1] [nM] | also measured
CS(=O)(=O)/N=C(/NCc1cc(-c2ccc(Cl)cc2)n(-c2ccc(Cl)cc2)n1)NCC1CC1 | 53 | IC50 [12]: 1640 nM
CS(=O)(=O)/N=C(\N)NCc1cc(-c2ccc(Cl)cc2)n(-c2ccc(Cl)cc2)n1 | 401 | 
N[C@@H](Cc1ccccc1)C(=O)NCc1cc(-c2ccc(Cl)cc2)n(-c2ccc(Cl)cc2)n1 | 280 | 
CCN/C(=N\S(C)(=O)=O)NCc1cc(-c2ccc(Cl)cc2)n(-c2ccc(Cl)cc2)n1 | 848 | 
N/C(=N\S(=O)(=O)c1cccc(F)c1)NCc1cc(-c2ccc(Cl)cc2)n(-c2ccc(Cl)cc2)n1 | 56 | IC50 [12]: 1350 nM
N/C(=N\S(=O)(=O)c1ccncc1)NCc1cc(-c2ccc(Cl)cc2)n(-c2ccc(Cl)cc2)n1 | 562 | 
NC(=O)/N=C(\N)NCc1cc(-c2ccc(Cl)cc2)n(-c2ccc(Cl)cc2)n1 | 1110 | 
CN(C)CC(=O)NCc1cc(-c2ccc(Cl)cc2)n(-c2ccc(Cl)cc2)n1 | 3880 | 
CC(=O)N[C@H](C(=O)NCc1cc(-c2ccc(Cl)cc2)n(-c2ccc(Cl)cc2)n1)c1ccccc1 | 42 | IC50 [12]: 5020 nM
CS(=O)(=O)/N=C(/NCc1cc(-c2ccc(Cl)cc2)n(-c2ccc(Cl)cc2)n1)N[C@H](CO)c1ccccc1 | 45 | 
N/C(=N\S(=O)(=O)Cc1ccccc1)NCc1cc(-c2ccc(Cl)cc2)n(-c2ccc(Cl)cc2)n1 | 774 | 
O=C(CCc1ccccc1)NCc1cc(-c2ccc(Cl)cc2)n(-c2ccc(Cl)cc2)n1 | 262 | 
NC(=O)NCc1cc(-c2ccc(Cl)cc2)n(-c2ccc(Cl)cc2)n1 | 1430 | 
O=C(NCc1cc(-c2ccc(Cl)cc2)n(-c2ccc(Cl)cc2)n1)c1ccccc1 | > 25000 | 
CC(=O)NC(C(=O)NCc1cc(-c2ccc(Cl)cc2)n(-c2ccc(Cl)cc2)n1)c1ccccn1 (configuration not stated) | 56 | IC50 [12]: 4170 nM
N/C(=N\S(=O)(=O)c1cccs1)NCc1cc(-c2ccc(Cl)cc2)n(-c2ccc(Cl)cc2)n1 | 249 | IC50 [12]: 1290 nM
O=C(NCc1cc(-c2ccc(Cl)cc2)n(-c2ccc(Cl)cc2)n1)C(O)c1ccccc1 (configuration not stated) | 159 | 
COc1cccc(S(=O)(=O)/N=C(\N)NCc2cc(-c3ccc(Cl)cc3)n(-c3ccc(Cl)cc3)n2)c1 | 60 | IC50 [12]: 2060 nM
CS(=O)(=O)NCc1cc(-c2ccc(Cl)cc2)n(-c2ccc(Cl)cc2)n1 | 2190 | 
CS(=O)(=O)/N=C(/NCc1cc(-c2ccc(Cl)cc2)n(-c2ccc(Cl)cc2)n1)NCc1cccs1 | 26 | 
